Tested on: intracoronary thrombus
Experiment: Local delivery of urokinase from hydrogel-coated balloon during balloon angioplasty in patients
Type: in vivo
Conditions: all 11 patients; balloon immersed in 50,000 units/ml; pressure in excess of 2 atmospheres; 1-2 inflations, 1-5 minutes
Method: To evaluate the efficacy of local delivery of urokinase during balloon angioplasty in treating intracoronary thrombus according to the invention, 11 patients were treated with hydrogel-coated balloons which had been immersed in a concentrated solution of urokinase (50,000 units/ml). Eight patients presented with acute myocardial infarctions, while the remaining three had unstable angina. Five patients had received intravenous thrombolytic therapy, including systemic thrombolysis. Conventional balloon angioplasty was initially performed in 9 of the 11 patients and was complicated either by acute thrombotic closure (n=7) or slow antegrade flow with the appearance of intracoronary thrombus (n=2). The remaining 2 patients had coronary stenoses with angiographic evidence of thrombus, but were not initially treated with conventional angioplasty.

urokinase
outcome of balloon dilatation with urokinase-impregnated, hydrogel-coated balloon: reversal of abrupt closure and dissolution of intracoronary thrombus

Reference: patent US6409716B1, “Drug delivery” (Scimed Life Systems, Inc., priority 1989, dated 2002)
